From ChEMBL document CHEMBL1201862, “PubChem BioAssay data set” (2004)
Active and inactive are the calls of the source.

What was measured:
Estrogen receptor beta = Estrogen receptor beta (Homo sapiens, UniProt Q92731);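 note: recombinant ER-beta bound to coactivator SRC1 peptide in presence of estradiol agonist; inhibitors block coactivator peptide binding and lower the FRET signal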
Vero = experiment: mammalian cell viability reduction – secondary assay, cytotoxicity control for West Nile virus antiviral project, dose response (AID 1650); format: functional; conditions: Chlorocebus sabaeus
[1] = M. tuberculosis H37Rv growth inhibitors, H37Rv strain (AID 1626); format: functional
[2] = molecular target: Sphingosine 1-phosphate receptor 2 (Homo sapiens, UniProt O95136); experiment: Dose Response Cell Based Assay for Agonists of the S1P2 Receptor of Purchased Analogues. [Related pubchem assays: 729, 843, 854, 736 ]; format: functional
Sphingosine 1-phosphate receptor 2, sequence (O95136 whole entry): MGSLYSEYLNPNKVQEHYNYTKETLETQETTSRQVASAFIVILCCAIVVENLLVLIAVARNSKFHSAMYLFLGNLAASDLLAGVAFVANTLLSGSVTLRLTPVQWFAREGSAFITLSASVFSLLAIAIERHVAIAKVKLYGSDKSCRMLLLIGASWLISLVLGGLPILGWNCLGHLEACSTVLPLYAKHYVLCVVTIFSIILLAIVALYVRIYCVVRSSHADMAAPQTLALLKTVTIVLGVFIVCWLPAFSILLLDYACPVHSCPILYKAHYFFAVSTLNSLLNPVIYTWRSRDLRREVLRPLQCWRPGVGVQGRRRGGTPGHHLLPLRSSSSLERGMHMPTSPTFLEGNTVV

[3] = molecular target: T1, COUP transcription factor 2 (Homo sapiens, UniProt P24468); experiment: Luminescence-based cell-based high throughput dose response assay to identify inhibitors of COUP-TFII (NR2F2).; format: functional;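 note: HEK293 cells transiently cotransfected with COUP-TFII expression vector and reporter; luciferase reporter luminescence driven by COUP-TFII from the pX2-168 reporter plasmid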
T1 sequence (P24468 whole entry): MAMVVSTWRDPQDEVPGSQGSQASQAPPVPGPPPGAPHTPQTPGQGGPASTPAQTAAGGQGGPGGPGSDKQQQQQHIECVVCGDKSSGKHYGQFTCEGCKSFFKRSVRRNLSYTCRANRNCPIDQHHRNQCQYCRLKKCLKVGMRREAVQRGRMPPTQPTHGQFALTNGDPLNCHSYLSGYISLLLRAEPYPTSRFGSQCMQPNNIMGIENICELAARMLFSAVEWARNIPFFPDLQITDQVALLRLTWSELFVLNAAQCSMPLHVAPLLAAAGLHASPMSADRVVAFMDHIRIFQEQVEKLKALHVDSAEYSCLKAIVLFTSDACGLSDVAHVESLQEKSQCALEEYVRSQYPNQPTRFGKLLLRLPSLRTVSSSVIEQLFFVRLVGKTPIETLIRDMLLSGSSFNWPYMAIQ

[4] = HEK-293T viability loss after treatment – luminescence, T-cell screen hits, cytotoxicity control for TCR NF-kB inhibitor project, dose response (AID 489026); format: functional, cell-based;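 note: cells exposed to compound about 14 hours before the viability readout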
cells [5] = format: functional, cell-based; conditions: HEK-CNG
Galanin receptor type 3 = molecular target: T2, Galanin receptor type 3 (Homo sapiens, UniProt O60755); experiment: Fluorescence-based cell-based primary high throughput dose response assay to identify antagonists of the Galanin Receptor 3 (GalR3).; format: functional
T2 sequence (O60755 whole entry): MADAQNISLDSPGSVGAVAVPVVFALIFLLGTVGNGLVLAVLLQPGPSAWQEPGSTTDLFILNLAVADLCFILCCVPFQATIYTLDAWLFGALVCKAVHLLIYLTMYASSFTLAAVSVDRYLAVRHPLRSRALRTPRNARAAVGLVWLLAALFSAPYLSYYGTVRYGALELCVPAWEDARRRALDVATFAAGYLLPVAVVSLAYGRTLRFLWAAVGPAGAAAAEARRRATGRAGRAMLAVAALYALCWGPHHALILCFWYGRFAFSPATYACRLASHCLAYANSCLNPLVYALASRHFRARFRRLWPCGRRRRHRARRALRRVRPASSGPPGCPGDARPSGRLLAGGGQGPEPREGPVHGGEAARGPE

Kallikrein-7 = Kallikrein-7 (Homo sapiens, UniProt P49862); experiment: Fluorescence Intensity-based biochemical primary high throughput dose response assay to identify activators of kallikrein-7 (K7) zymogen.
Kallikrein-7, sequence (P49862 whole entry, the tested form may be a part): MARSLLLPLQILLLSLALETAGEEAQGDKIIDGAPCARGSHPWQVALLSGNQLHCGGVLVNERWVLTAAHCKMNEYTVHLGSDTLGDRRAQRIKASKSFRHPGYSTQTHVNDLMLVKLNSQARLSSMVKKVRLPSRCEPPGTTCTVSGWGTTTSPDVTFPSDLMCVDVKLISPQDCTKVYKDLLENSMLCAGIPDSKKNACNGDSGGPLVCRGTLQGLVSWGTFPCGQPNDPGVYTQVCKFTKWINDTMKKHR

[6] = molecular target: T3, Carboxy-terminal domain RNA polymerase II polypeptide A small phosphatase 1 (Homo sapiens, UniProt Q9GZU7); experiment: CTDSP1 inhibitors, concentration-response, biochemical, absorbance readout, ultra-high-throughput screen actives (AID 540297); format: functional
T3 sequence (Q9GZU7 whole entry): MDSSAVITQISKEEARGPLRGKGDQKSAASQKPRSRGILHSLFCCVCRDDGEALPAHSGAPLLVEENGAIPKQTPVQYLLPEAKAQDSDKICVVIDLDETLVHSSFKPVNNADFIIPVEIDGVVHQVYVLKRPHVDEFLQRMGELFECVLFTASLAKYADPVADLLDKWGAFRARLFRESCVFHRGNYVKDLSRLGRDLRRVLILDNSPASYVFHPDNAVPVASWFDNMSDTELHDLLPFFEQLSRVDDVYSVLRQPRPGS

Caspase-6 = molecular target: T4, Caspase-6 (Homo sapiens, UniProt P55212); experiment: inhibition of CASP6 peptide cleavage – biochemical, VEID-R110 fluorescence, cherry-pick, dose response (AID 720632)
T4 sequence (P55212 whole entry): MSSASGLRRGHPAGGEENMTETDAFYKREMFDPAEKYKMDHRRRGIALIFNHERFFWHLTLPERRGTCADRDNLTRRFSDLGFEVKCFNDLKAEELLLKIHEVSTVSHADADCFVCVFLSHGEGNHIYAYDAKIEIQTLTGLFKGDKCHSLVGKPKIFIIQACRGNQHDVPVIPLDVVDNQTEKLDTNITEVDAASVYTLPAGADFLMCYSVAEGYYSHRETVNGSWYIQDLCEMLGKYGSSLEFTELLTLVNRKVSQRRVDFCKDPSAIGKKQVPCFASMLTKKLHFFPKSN

cells [7] = experiment: cells
[8] = molecular target: T5, Mannose-6-phosphate isomerase (Homo sapiens, UniProt P34949); experiment: MPI enzyme activity inhibition – biochemical, fluorescence intensity, coupled assay, primary screen (AID 1209)
T5 sequence (P34949 whole entry): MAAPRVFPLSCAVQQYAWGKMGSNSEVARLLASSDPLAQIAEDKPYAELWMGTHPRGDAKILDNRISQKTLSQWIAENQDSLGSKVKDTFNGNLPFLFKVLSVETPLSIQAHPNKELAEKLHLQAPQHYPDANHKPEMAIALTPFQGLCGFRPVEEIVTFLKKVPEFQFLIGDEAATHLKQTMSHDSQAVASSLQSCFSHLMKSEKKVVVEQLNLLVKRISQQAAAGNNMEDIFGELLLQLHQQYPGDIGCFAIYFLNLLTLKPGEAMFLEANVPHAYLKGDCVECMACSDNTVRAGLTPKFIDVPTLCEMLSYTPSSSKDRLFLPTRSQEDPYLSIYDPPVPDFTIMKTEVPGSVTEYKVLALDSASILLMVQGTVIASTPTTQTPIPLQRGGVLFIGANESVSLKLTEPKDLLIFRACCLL

Protein skinhead-1 = molecular target: T6, Protein skinhead-1 (Caenorhabditis elegans, UniProt P34707); format: functional
T6 sequence (P34707 whole entry): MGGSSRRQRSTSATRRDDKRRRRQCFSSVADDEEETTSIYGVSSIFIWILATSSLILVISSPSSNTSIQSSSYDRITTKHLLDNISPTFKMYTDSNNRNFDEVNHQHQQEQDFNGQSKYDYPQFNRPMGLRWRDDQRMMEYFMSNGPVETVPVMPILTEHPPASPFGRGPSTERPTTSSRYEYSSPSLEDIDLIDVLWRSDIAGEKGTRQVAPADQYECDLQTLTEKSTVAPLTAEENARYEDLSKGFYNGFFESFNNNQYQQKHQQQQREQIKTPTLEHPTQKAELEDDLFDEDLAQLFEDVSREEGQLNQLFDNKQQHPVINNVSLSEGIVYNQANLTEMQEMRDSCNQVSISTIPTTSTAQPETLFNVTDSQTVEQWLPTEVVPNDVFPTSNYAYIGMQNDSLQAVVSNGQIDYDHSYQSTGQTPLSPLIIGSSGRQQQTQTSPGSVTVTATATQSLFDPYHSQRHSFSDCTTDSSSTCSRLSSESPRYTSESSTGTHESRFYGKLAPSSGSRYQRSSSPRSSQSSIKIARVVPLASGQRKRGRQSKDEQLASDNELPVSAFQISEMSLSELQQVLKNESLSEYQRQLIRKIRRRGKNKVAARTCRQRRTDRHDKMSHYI

[9] = molecular target: T5, Mannose-6-phosphate isomerase; experiment: MPI inhibition at elevated mannose 6-phosphate – biochemical, fluorescence intensity, high mannose 6-phosphate, primary screen (AID 1220)
[10] = viability of uninfected HEp-2 cells – cell-based, HTS, cytotoxicity control for RSV inhibitor project, dose response (AID 2410); format: functional; conditions: human respiratory syncytial virus
[11] = non-specific 3'UTR reporter inhibition in Clone20-Shn3RL – cell-based, Renilla luciferase, cherry-picked, counter-screen for Shn3 inhibitor project, dose response (AID 624133); format: functional
[12] = loss of viability in HepG2 cells – cell-based, CellTiter-Glo, cherry-picked, cytotoxicity control for Shn3 inhibitor project, dose response (AID 624134); format: functional
[13] = reduction of Shn3 3'UTR-driven luciferase in osteoblasts – cell-based, Clone20 osteoblasts, firefly luciferase, cherry-picked, dose response (AID 624132); format: functional;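 note: firefly luciferase luminescence from reporter carrying the Shn3 3'UTR in osteoblasts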
H4 = experiment: Luminescence Cell-Based Dose Response HTS to Identify Activators of 5'UTR Stem-Loop Driven Prion Protein mRNA Translation in H4 Neuroglioblastoma Cells. [Related pubchem assays: 1829 (Project Summary), 1814 (Primary HTS)]; format: functional; conditions: Homo sapiens
[14] = Luminescence Cell-Based Dose Response HTS to Identify Activators of Luciferase Translation or Activity in H4 […] Cells. [Related pubchem assays: 1829 (Project Summary), 1814 (Primary HTS)]; format: functional
[15] = Luminescence Cell-Based Dose Confirmation HTS to Identify Activators of 5'UTR Stem-Loop Driven Alpha-Synuclein mRNA Translation in H4 Neuroglioblastoma Cells. [Related pubchem assays: 1829 (Project Summary), 1814 (Primary HTS)]; format: functional
[16] = A Cell Based Secondary Assay To Explore Cytotoxicity of Compounds that Sensitize Mycobacterium Tuberculosis to Beta-Lactam Antibiotics.; format: functional

Estrogen receptor beta, sequence (Q92731 whole entry): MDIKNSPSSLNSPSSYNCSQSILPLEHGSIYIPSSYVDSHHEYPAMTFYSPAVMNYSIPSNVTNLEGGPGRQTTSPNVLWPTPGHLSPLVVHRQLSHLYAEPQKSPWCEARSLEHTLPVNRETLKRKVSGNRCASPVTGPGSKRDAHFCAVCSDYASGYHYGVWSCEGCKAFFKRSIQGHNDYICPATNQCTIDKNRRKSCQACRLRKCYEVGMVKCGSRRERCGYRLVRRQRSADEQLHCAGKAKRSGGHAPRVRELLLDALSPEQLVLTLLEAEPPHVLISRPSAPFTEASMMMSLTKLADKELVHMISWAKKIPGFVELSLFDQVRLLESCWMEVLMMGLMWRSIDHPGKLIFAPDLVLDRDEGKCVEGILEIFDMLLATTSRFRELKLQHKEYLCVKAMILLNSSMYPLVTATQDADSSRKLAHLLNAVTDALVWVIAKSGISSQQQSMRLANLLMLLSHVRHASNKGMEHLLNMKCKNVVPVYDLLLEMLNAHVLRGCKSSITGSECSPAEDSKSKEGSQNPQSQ

## O=C(O)c1cc2sccc2s1
Estrogen receptor beta
  IC50: > 50 µM (not active)

## CC(C)Oc1ccc(C(=O)Nc2ccc(Cl)c(S(=O)(=O)Nc3ccc(Cl)cc3)c2)cc1
Vero
  CC50: 28.1 µM (active)

## CCCCC(=O)OCC(=O)Nc1ccc(SC(F)F)cc1
[1]
  IC50: > 100 µM (active)

## Cc1cc(C(=O)COc2ccc(C(N)=O)cc2)c(C)n1Cc1ccccc1
[2]
  EC50: > 30 µM (not active)

## COc1ccc(OC)c(CCNC(=O)Cn2nc(C)c3c(C)n(-c4ccc(C)cc4)nc3c2=O)c1
[3]
  IC50: 2.61 µM (active)
[4]
  IC50: > 80 µM (inactive)
Cells [5]
  EC50: > 29.9 µM (inactive)
Galanin receptor type 3
  IC50: 2.76 µM (active)

## CC[C@@H]1C(c2ccc(F)cc2)=NN(c2ccccc2)[C@H]1C(=O)N1CCOC1=O
Kallikrein-7
  EC50: 7.45 µM (active)

## Cc1ccc(OCCC(=O)Nc2ccc(C)c(F)c2)cc1
[1]
  IC50: > 100 µM (active)

## CC(=O)c1ccc(OCC(=O)c2cc(C)n(Cc3ccccc3)c2C)cc1
[2]
  EC50: > 30 µM (not active)

## CCc1ccccc1NC(=O)CNC(=O)CCc1nc2sc3c(c2c(=O)[nH]1)CCCC3
[6]
  IC50: 5.82 µM (active)
Caspase-6
  AC50: 24.8 µM (active)

## COc1cccc(C2(C)NC(=O)N(CC(=O)c3cc(C)n(Cc4ccccc4)c3C)C2=O)c1 (stereo not drawn)
[2]
  EC50: > 30 µM (not active)

## Cc1ccc(S(=O)(=O)N2CCN(C)CC2)cc1-c1nnc2c3ccccc3c(C)nn12
Cells [7]
  IC50: 23.1 µM (active)

## O=C(O)CCNc1cc2ccccc2cc1C(=O)O
[8]
  IC50: > 50 µM (not active)
Protein skinhead-1
  IC50: > 100 µM (inactive)
[9]
  IC50: > 50 µM (not active)

## CCOc1ccc(OCC)c(NC(=O)CN2CCN(c3cc(C)ccc3C)CC2)c1
[1]
  IC50: > 100 µM (active)

## Cc1cc(C)c2cc(C=O)c(Cl)nc2c1
[8]
  IC50: 14.2 µM (active)
[9]
  IC50: 17.1 µM (active)

## CCN(c1ccccc1)S(=O)(=O)c1ccc(Cl)c(NC(=O)CSc2nc[nH]n2)c1
Cells [7]
  IC50: 16.9 µM (active)
[10]
  CC50: 46.3 µM (active)

## CCC(C)C(NC(=O)CCCNC(=O)CCC(=O)OC1O[C@H]2OC3(C)CC[C@H]4[C@H](C)CCC(C1C)C24OO3)C(=O)O (stereo partly drawn)
[11]
  AC50: 0.683 µM (active)
[12]
  AC50: > 70 µM (inactive)
[3]
  IC50: > 85.4 µM (inactive)
[13]
  AC50: 1.02 µM (active)

## Cc1nc(N=C(N)NC(=O)c2ccccc2)nc2ccccc12
H4
  EC50: 63.4 µM (active)
[14]
  EC50: 28.4 µM (active)
[15]
  EC50: 8.34 µM (active)
[16]
  CC50: > 40 µM (active)

## c1ccc(-c2cc(N3CCOCC3)nc3ccccc23)cc1
[16]
  CC50: > 40 µM (active)

## CS(=O)(=O)c1ccc(-c2sc3cc4c(cc3c2C(=O)NN2CCOCC2)OCO4)cc1
[6]
  IC50: 14.6 µM (active)
Kallikrein-7
  EC50: > 23.2 µM (inactive)

## COc1ccc(-c2ccc3c(n2)CCCN3Cc2ccccc2C(F)(F)F)cc1
Kallikrein-7
  EC50: 17.2 µM (inactive)

## C(=N\Nc1ncnc2sc3c(c12)CCC3)/c1ccncc1
Vero
  CC50: > 100 µM (active)
[10]
  CC50: 38.7 µM (active)

## COc1cc(C)c2occ(/C(C)=N\O)c2c1
Cells [7]
  IC50: 18.4 µM (active)
